Results taken from patent US9828368B2 (MERCK SHARP & DOHME CORP., priority 2013, dated 2017).

What was measured:
hOX1R = hOX1R (Homo sapiens, UniProt O43613); assay: FLIPR Ca2+ flux assay, hOX1R; assay type: cell-based; settings: CHO cells; agonist 70 pM Ala-6,12 orexin-A; rat orexin-1 receptor; read-out: hOX1R FLIPR IC50
human orexin-2 receptor = human orexin-2 receptor (Homo sapiens (Human), UniProt O43614); assay: FLIPR Ca2+ flux assay, hOX2R; assay type: cell-based; settings: CHO cells expressing human orexin-2 receptor; agonist 70 pM Ala-6,12 orexin-A
Chain of human orexin-2 receptor (O43614 whole entry): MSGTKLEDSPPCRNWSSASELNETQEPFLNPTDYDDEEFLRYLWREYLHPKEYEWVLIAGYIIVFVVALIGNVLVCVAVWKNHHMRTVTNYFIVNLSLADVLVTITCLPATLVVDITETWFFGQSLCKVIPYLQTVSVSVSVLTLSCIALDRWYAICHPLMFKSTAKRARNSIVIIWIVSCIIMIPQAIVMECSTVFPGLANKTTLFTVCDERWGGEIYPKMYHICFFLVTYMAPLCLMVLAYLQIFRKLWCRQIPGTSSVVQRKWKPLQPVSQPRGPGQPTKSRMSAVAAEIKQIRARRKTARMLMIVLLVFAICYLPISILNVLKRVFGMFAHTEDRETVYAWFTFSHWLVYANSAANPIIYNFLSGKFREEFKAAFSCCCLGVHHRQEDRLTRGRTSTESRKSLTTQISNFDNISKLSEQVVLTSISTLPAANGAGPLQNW
Method: In a typical experiment the OX1 and OX2 receptor antagonistic activity of the compounds of the present invention was determined in accordance with the following experimental method. For intracellular calcium measurements, Chinese hamster ovary (CHO) cells expressing the rat orexin-1 receptor or the human orexin-2 receptor, are grown in Iscove's modified DMEM containing 2 mM L-glutamine, […], 1% hypoxanthine-thymidine supplement, 100 U/ml penicillin, 100 μg/ml streptomycin and 10% heat-inactivated fetal calf serum (FCS). The cells are seeded at 20,000 cells/well into Becton-Dickinson black 384-well clear bottom sterile plates coated with poly-D-lysine. All reagents were from GIBCO-Invitrogen Corp. The seeded plates are incubated overnight at 37° C. and 5% CO2. Ala-6,12 human orexin-A as the agonist is prepared as a 1 mM stock solution in 1% bovine serum albumin (BSA) and diluted in assay buffer (HBSS containing 20 mM HEPES, 0.1% BSA and 2.5 mM probenecid, pH7.4) for use in the assay at a final concentration of 70 pM. Test compounds are prepared as 10 mM stock solution in DMSO, then diluted in 384-well plates, first in DMSO, then assay buffer. On the day of the assay, cells are washed 3 times with 100 μl assay buffer and then incubated for 60 min (37° C., 5% CO2) in 60 μl assay buffer containing 1 μM Fluo-4AM ester, 0.02% pluronic acid, and 1% BSA. The dye loading solution is then aspirated and cells are washed 3 times with 100 μl assay buffer. 30 μl of that same buffer is left in each well. Within the Fluorescent Imaging Plate Reader (FLIPR, Molecular Devices), test compounds are added to the plate in a volume of 25 μl, incubated for 5 min and finally 25 μl of agonist is added. Fluorescence is measured for each well at 1 second intervals for 5 minutes and the height of each fluorescence peak is compared to the height of the fluorescence peak induced by 70 pM Ala-6,12 orexin-A with buffer in place of antagonist. […] The intrinsic orexin receptor antagonist activity of a compound which may be used in the present invention may be determined by these assays.

SMILES | IC50 (hOX1R) [nM] | IC50 (human orexin-2 receptor) [nM]
Cc1oc([C@@H]2CC[C@@H](C)N(C(=O)c3ccccc3-n3ncnn3)C2)nc1C(C)(C)O [Example 24, (2-(2H-Tetrazol-2-yl)phenyl)((2R,5R)-5-(4-(2-hydroxypropan-2-yl)-5-methyloxazol-2-yl)-2-methylpiperidin-1-yl)methanone] | 3840 | 13.5
Cc1oc([C@@H]2CC[C@@H](C)N(C(=O)c3ccsc3-n3nccn3)C2)nc1C(C)(C)O [Example 25, (2-(2H-1,2,3-Triazol-2-yl)thiophen-3-yl)((2R,5R)-5-(4-(2-hydroxypropan-2-yl)-5-methyloxazol-2-yl)-2-methylpiperidin-1-yl)methanone] | 1650 | 10.7
Cc1oc([C@@H]2CC[C@@H](C)N(C(=O)c3ccsc3-c3ncccn3)C2)nc1C(C)(C)O [Example 26, ((2R, 5R)-5-(4-(2-Hydroxypropan-2-yl)-5-methyloxazol-2-yl)-2-methylpiperidin-1-yl)(2-(pyrimidin-2-yl)thiophen-3-yl)methanone] | 1360 | 42
Cc1oc([C@@H]2CC[C@@H](C)N(C(=O)c3ccccc3OC(F)(F)F)C2)nc1C(C)(C)O [Example 28, ((2R,5R)-5-(4-(2-Hydroxypropan-2-yl)-5-methyloxazol-2-yl)-2-methylpiperidin-l-yl)(2-(trifluoromethoxy)phenyl)methanone] | 1400 | 14.1
Cc1oc([C@@H]2CC[C@@H](C)N(C(=O)c3ccccc3OC(C)C)C2)nc1C(C)(C)O [Example 29, ((2R,5R)-5-(4-(2-Hydroxypropan-2-yl)-5-methyloxazol-2-yl)-2-methylpiperidin-1-yl)(2-isopropoxyphenyl)methanone] | 2000 | 20.4
Cc1oc([C@@H]2CC[C@@H](C)N(C(=O)c3nc(Cl)sc3C(C)C)C2)nc1C(C)(C)O [Example 32, (2-Chloro-5-isopropylthiazol-4-yl)((2R,5R)-5-(4-(2-hydroxypropan-2-yl)-5-methyloxazol-2-yl)-2-methylpiperidin-1-yl)methanone] | > 10000 | 160
COC(=O)c1ccccc1C(=O)N1C[C@H](c2nc(C(C)(C)O)c(C)o2)CC[C@H]1C [Example 33, Methyl 2-((2R,5R)-5-(4-(2-hydroxypropan-2-yl)-5-methyloxazol-2-yl)-2-methylpiperidine-1-carbonyl)benzoate] | 9980 | 23
Cc1oc([C@@H]2CC[C@@H](C)N(C(=O)c3ccccc3-c3ncccn3)C2)nc1C(C)(C)O [Example 34, ((2R,5R)-5-(4-(2-Hydroxypropan-2-yl)-5-methyloxazol-2-yl)-2-methylpiperidin-1-yl)(2-(pyrimidin-2-yl)phenyl)methanone] | 2200 | 56
Cc1oc([C@@H]2CC[C@@H](C)N(C(=O)c3ccc(F)cc3-n3nccn3)C2)nc1C(C)(C)O [Example 37] | 1350 | 19.1
Cc1oc([C@@H]2CC[C@@H](C)N(C(=O)c3cccnc3OCC(F)F)C2)nc1C(C)(C)O [Example 38, (2-(2,2-Difluoroethoxy)pyridin-3-yl)((2R,5R)-5-(4-(2-hydroxypropan-2-yl)-5-methyloxazol-2-yl)-2-methylpiperidin-1-yl)methanone] | ~6400 | 14.1
Cc1oc([C@@H]2CC[C@@H](C)N(C(=O)c3cccnc3OCC(F)(F)F)C2)nc1C(C)(C)O [Example 39, ((2R,5R)-5-(4-(2-Hydroxypropan-2-yl)-5-methyloxazol-2-y1)-2-methylpiperidin-1-yl)(2-(2,2,2-trifluoroethoxy)pyridin-3-yl)methanone] | 2130 | 17.5
Cc1oc([C@@H]2CC[C@@H](C)N(C(=O)c3cccnc3OC(C)C)C2)nc1C(C)(C)O [Example 40, ((2R,5R)-5-(4-(2-Hydroxypropan-2-yl)-5-methyloxazol-2-yl)-2-methylpiperidin-1-yl)(2-isopropoxypyridin-3-yl)methanone] | > 10000 | 29.5
COCCc1ccccc1C(=O)N1C[C@H](c2nc(C(C)(C)O)c(C)o2)CC[C@H]1C [Example 41, ((2R,5R)-5-(4-(2-Hydroxypropan-2-yl)-5-methyloxazol-2-yl)-2-methylpiperidin-1-yl)(2-(2-methoxyethyl)phenyl)methanone] | > 10000 | 57
Cc1oc([C@@H]2CC[C@@H](C)N(C(=O)c3cnsc3-n3nccn3)C2)nc1C(C)(C)O [Example 42, (5-(2H-1,2,3-Triazol-2-yl)isothiazol-4-yl)((2R,5R)-5-(4-(2-hydroxypropan-2-yl)-5-methyloxazol-2-yl)-2-methylpiperidin-1-yl)methanone] | > 10000 | 114
Cc1cc(C(=O)N2C[C@H](c3nc(C(C)(C)O)c(C)o3)CC[C@H]2C)c(-n2nccn2)s1 [Example 43, ((2R,5R)-5-(4-(2-Hydroxypropan-2-yl)-5-methyloxazol-2-yl)-2-methylpiperidin-1-yl)(5-methyl-2-(2H-1,2,3-triazol-2-yl)thiophen-3-yl)methanone] | 1190 | 30
CC[C@@](C)(O)c1nc([C@@H]2CC[C@@H](C)N(C(=O)c3ccccc3-n3nccn3)C2)oc1C [Example 44, (2-(2H-1,2,3-Triazol-2-yl)phenyl)((2R,5R)-5-(4-((R)-2-hydroxybutan-2-yl)-5-methyloxazol-2-yl)-2-methylpiperidin-1-yl)methanone] | 790 | 31
CC[C@](C)(O)c1nc([C@@H]2CC[C@@H](C)N(C(=O)c3ccccc3-n3nccn3)C2)oc1C [Example 45, (2-(2H-1,2,3-triazol-2-yl)phenyl)((2R,5R)-5-(4-((S)-2-hydroxybutan-2-yl)-5-methyloxazol-2-yl)-2-methylpiperidin-1-yl)methanone] | 1220 | 24
CC[C@](C)(O)c1nc([C@@H]2CC[C@@H](C)N(C(=O)c3cscc3-n3nccn3)C2)oc1C [Example 46, (4-(2H-1,2,3-triazol-2-yl)thiophen-3-yl)((2R,5R)-5-(4-((S)-2-hydroxybutan-2-yl)-5-methyloxazol-2-yl)-2-methylpiperidin-1-yl)methanone] | 4700 | 37
CC[C@@](C)(O)c1nc([C@@H]2CC[C@@H](C)N(C(=O)c3cscc3-n3nccn3)C2)oc1C [Example 47, (4-(2H-1,2,3-triazol-2-yl)thiophen-3-yl)((2R,5R)-5-(4-((R)-2-hydroxybutan-2-yl)-5-methyloxazol-2-yl)-2-methylpiperidin-1-yl)methanone] | 9770 | 18
C[C@@H]1CC[C@@H](c2nc(C(C)(C)O)c(Cl)o2)CN1C(=O)c1ccccc1-n1nccn1 [Example 52, (2-(2H-1,2,3-Triazol-2-yl)phenyl)((2R,5R)-5-(5-chloro-4-(2-hydroxypropan-2-yl)oxazol-2-yl)-2-methylpiperidin-1-yl)methanone] | 3160 | 265
C[C@@H]1CC[C@@H](c2nc(C(C)(C)O)c(C(F)F)o2)CN1C(=O)c1ccccc1-n1nccn1 [Example 53, (2-(2H-1,2,3-Triazol-2-yl)phenyl)((2R,5R)-5-(5-(difluoromethyl)-4-(2-hydroxypropan-2-yl)oxazol-2-yl)-2-methylpiperidin-1-yl)methanone] | 316 | 43
C[C@@H]1CC[C@@H](c2nc(C(C)(C)O)c(C(F)(F)F)o2)CN1C(=O)c1ccccc1-n1nccn1 [Example 54, (2-(2H-1,2,3-Triazol-2-yl)phenyl)((2R,5R)-5-(4-(2-hydroxypropan-2-yl)-5-(trifluoromethyl)oxazol-2-yl)-2-methylpiperidin-1-yl)methanone] | 240 | 42
Cc1nc([C@@H]2CC[C@@H](C)N(C(=O)c3ccccc3-n3nccn3)C2)oc1C(C)(C)O [Example 55, (2-(2H-1,2,3-Triazol-2-yl)phenyl)((2R,5R)-5-(5-(2-hydroxypropan-2-yl)-4-methyloxazol-2-yl)-2-methylpiperidin-1-yl)methanone] | 89 | 63
COC(=O)c1nc([C@@H]2CC[C@@H](C)N(C(=O)c3ccccc3-n3nccn3)C2)oc1-c1ccccc1 [Example 56, Methyl 2-((3R,6R)-1-(2-(2H-1,2,3-triazol-2-yl)benzoyl)-6-methylpiperidin-3-yl)-5-phenyloxazole-4-carboxylate] | 359 | 1590
C[C@@H]1CC[C@@H](c2nc(CO)c(-c3ccccc3)o2)CN1C(=O)c1ccccc1-n1nccn1 [Example 57, (2-(2H-1,2,3-Triazol-2-yl)phenyl)((2R,5R)-5-(4-(hydroxymethyl)-5-phenyloxazol-2-yl)-2-methylpiperidin-1-yl)methanone] | 368 | 1170
